Experiment [1] deals with Aspergillus niger (NRRL 330). The experiment in a line: Protein (amylase) induction in Aspergillus niger culture, amylase activity assay. The settings on record: inducer 0.05 g/L; 1% sorbitol as carbon source; 24 hours after inducer addition. It counts as cell-based. The protocol:
The procedure of preparing maltose acetate chemically and subsequent sample recovery follows the same procedure described in Example 4. […] Aspergillus niger (NRRL 330), obtained from ARS culture collection, was maintained on a PDA plate and allowed to sporulate for a week at room temperature. For inoculation, a 2 cm by 2 cm area agar plug was first removed and suspended in 5 mL sterile water. […] After additional 24 hours, the cultures were assayed for amylase activity following similar procedures to those detailed by Barton et al. (J.

For a further experiment, the system named is T. reesei Rut-C30. The experiment in a line: Protein (cellulase) induction in T. reesei Rut-C30 shake-flask culture, CMC endo-glucanase activity assay. The settings on record: for Cellulase activity at day 3 / Cellulase activity at day 3 (specific induction power, U/mg inducer): 2% glucose as carbon source. It counts as cell-based, Trichoderma reesei. The text has this: To prepare for protein induction studies using Trichoderma, a citrate minimal media was first prepared. The media composition, as modified from England et al. (U.S. Pat. […] The final pH was adjusted to 5.50 using NaOH. […] It was obtained from ATCC (56765) and developed as a catabolic de-repressed strain from classic mutagenesis of parent strain NG14 and the wild type […] al., BMC Genomics, 9:327, (2008)). To propagate Trichoderma, the freeze-dried stock from ATCC was first dissolved in sterile deionized water and then transferred onto a PDA (potato dextrose agar) plate (Teknova […]) using a sterile loop. The PDA plate was maintained at room temperature under white fluorescent light and after approximately 7 days, green Trichoderma spores could be seen. In addition, 60% (w/v) glucose stock was prepared and used both as control and as the carbon source for Trichoderma growth. […] Bacteriol., 73:269-278, (1957)).

A further experiment concerns Penicillium purpurogenum. The settings on record: cited from earlier work.
A further experiment relates to Pullularia pullulans. To be noted: cited from earlier work.
For experiment [2], the system named is cellulase gene promoter in Trichoderma reesei. To be noted: cited from earlier work.

Take `OC[C@H]1O[C@H](O[C@H]2[C@H](O)[C@@H](O)[C@H](O)O[C@@H]2CO)[C@H](O)[C@@H](O)[C@@H]1O` [Maltose, maltose]: in experiment [1], the “Amylase activity at day 3” value is reported as 2.11 U/mL and the “Amylase activity at day 3 (specific induction power, U/mg inducer)” value amounted to 44.0 U/mg.

`O=C[C@H](O)[C@@H](O)[C@H](O[C@@H]1O[C@H](CO)[C@@H](O)[C@H](O)[C@H]1O)[C@H](O)CO` [cellobiose, reference compound]: in the experiment with T. reesei Rut-C30 (inducer 1.0 g/L), the “Cellulase activity at day 3” value worked out at 0.34 U/mL and the “Cellulase activity at day 3 (specific induction power, U/mg inducer)” value amounted to 0.34 U/mg.

Regarding mono-O-acetyl cellobiose, in the experiment on Penicillium purpurogenum, the “effectiveness at inducing cellulase (in words)” value is reported as “the most active inducer tested”.

Regarding `OC[C@H]1O[C@@H](O[C@H]2[C@H](O)[C@@H](O)C(O)O[C@@H]2CO)[C@H](O)[C@@H](O)[C@H]1O` (stereo partly drawn) [lactose, D-lactose, reference compound], in the experiment with T. reesei Rut-C30 (inducer 1.0 g/L), the “Cellulase activity at day 3” value was 0.64 U/mL and the “Cellulase activity at day 3 (specific induction power, U/mg inducer)” value was 0.64 U/mg.

Take “6″ acetylated lactose monoester [Purified lactose monoacetate]”: the “Cellulase activity at day 3” value in the experiment with T. reesei Rut-C30 (inducer 0.09 g/L) is 2.05 U/mL; in the experiment with T. reesei Rut-C30 (inducer 0.51 g/L) it was 10.1 U/mL; in the experiment with T. reesei Rut-C30 (inducer 1.05 g/L), 14.0 U/mL. In addition, the figures for the “Cellulase activity at day 3 (specific induction power, U/mg inducer)” value with T. reesei Rut-C30 (inducer 0.09 g/L), in the experiment with T. reesei Rut-C30 (inducer 0.51 g/L) and in the experiment on T. reesei Rut-C30 (inducer 1.05 g/L) were 22.0 U/mg, 19.9 U/mg and 13.3 U/mg, respectively. For the same compound, the “specific induction activity relative to unmodified lactose” value with T. reesei Rut-C30 (inducer 0.09 g/L, day 3) was “approximately 34 times”; in the experiment on T. reesei Rut-C30 (inducer 0.51 g/L, day 3) it was approximately 31 times; in the experiment with T. reesei Rut-C30 (inducer 1.05 g/L, day 3), approximately 21 times.

Consider `CC(=O)OC[C@H]1O[C@@H](O[C@@H]2[C@@H](O)[C@H](O)[C@@H](COC(C)=O)O[C@@H]2O)[C@H](O)[C@@H](O)[C@@H]1O` [Purified sophorose diacetate, 6′ and 6″ acetylated alpha-sophorose diester], for which, in the experiment with T. reesei Rut-C30 (inducer 0.03 g/L), the “Cellulase activity at day 3” value is 6.33 U/mL and the “Cellulase activity at day 3 (specific induction power, U/mg inducer)” value came out at 211.0 U/mg. The “specific induction power relative to sophorose” value with T. reesei Rut-C30 (inducer 0.03 g/L, day 3) is listed as approximately 8 times. In the experiment on T. reesei Rut-C30 (inducer 0.12 g/L), the “Cellulase activity at day 3” value was found to be 23.2 U/mL and the “Cellulase activity at day 3 (specific induction power, U/mg inducer)” value worked out at 193.3 U/mg. Besides, the “specific induction power relative to unmodified sophorose” value in the experiment on T. reesei Rut-C30 (inducer 0.12 g/L, day 3) is recorded as approximately 7 times.

Turning to Sucrose monopalmitate, the “induced sucrase yield relative to sucrose” value in the experiment on Pullularia pullulans is 80 times.

On to `OC[C@H]1O[C@@H](O[C@H]2C(O)O[C@H](CO)[C@@H](O)[C@@H]2O)[C@H](O)[C@@H](O)[C@@H]1O` (stereo partly shown) [sophorose, reference compound], for which, in the experiment on T. reesei Rut-C30 (inducer 0.13 g/L), the “Cellulase activity at day 3” value was 3.58 U/mL and the “Cellulase activity at day 3 (specific induction power, U/mg inducer)” value was determined as 26.9 U/mg. In the experiment on T. reesei Rut-C30 (inducer 1.3 g/L), the “Cellulase activity at day 3” value was determined as 15.0 U/mL and the “Cellulase activity at day 3 (specific induction power, U/mg inducer)” value is recorded as 11.2 U/mg. The “activity as cellulase inducer relative to cellobiose” value in experiment [2] is given as 2500 times.

The values are drawn from patent US10059973B2, “Carbohydrate esters as inducers for gene expression” (priority 2012, dated 2018).
